{"source": "paper PMC7312527", "about": "(International Journal of Molecular Sciences, 2020)", "key": {"[1]": {"biological_target": "T1, AChE–BACE-1A protein pair (Homo sapiens, UniProt P22303+P56817)", "T1 construct": "pGBKT7-hAChE plasmid contained the cDNA fragment encoding for aa 52–577; N-terminal domain (aa 46–457) of BACE1A (GenBank: AF204943.1); host or cells: Saccharomyces cerevisiae Y2HGold (bait) mated with Y187 (prey)", "T1 sequence (P22303 52-577)": "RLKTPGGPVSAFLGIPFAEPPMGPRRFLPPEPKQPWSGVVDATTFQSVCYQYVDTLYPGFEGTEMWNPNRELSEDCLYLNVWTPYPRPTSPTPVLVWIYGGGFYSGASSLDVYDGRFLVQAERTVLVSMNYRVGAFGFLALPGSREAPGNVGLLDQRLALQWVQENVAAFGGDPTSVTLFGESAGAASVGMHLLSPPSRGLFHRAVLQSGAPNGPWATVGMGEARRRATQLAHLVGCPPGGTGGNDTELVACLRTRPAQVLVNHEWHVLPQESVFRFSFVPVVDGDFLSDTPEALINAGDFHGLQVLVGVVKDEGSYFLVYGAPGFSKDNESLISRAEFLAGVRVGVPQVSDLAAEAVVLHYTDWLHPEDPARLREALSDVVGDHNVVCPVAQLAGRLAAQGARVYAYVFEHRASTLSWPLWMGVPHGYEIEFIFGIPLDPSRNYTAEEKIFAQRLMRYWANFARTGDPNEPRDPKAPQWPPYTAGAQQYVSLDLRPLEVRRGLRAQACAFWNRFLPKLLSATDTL", "T1 sequence (P56817 46-457)": "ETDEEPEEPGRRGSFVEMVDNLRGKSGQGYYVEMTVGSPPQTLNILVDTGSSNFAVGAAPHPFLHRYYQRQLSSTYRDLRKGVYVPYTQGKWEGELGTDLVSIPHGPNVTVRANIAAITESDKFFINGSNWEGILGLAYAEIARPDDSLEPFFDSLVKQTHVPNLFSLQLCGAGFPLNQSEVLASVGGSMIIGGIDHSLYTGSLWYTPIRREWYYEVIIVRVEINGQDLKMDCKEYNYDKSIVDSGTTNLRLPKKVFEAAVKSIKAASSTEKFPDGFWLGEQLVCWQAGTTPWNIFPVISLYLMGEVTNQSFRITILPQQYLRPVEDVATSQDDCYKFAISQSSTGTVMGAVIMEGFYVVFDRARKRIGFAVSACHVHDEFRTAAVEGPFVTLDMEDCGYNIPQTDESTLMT", "experiment": "Yeast three-hybrid (Y3H) test and β-galactosidase assay, AChE–BACE-1A", "assay_type": "cell-based", "experimental": "The putative induction of interactions between hybrid ligands and five selected proteins was evaluated by the Y3H method. […]. The company maintained cDNA synthesis and cloning of inserts in a proper frame, such as the NdeI/BamHI fragments into the pGBKT7 (AChE) or pGADT7 (A4, BACE1A, MAO B, MAPT) vectors. Moreover, the yeast codon optimization was realized to facilitate the high expression of human recombinant proteins in Saccharomyces cerevisiae. The cDNA encoding for human AChE (GenBank M55040.1) was modified by removing the fragments for a signal peptide (aa 1–51) and the domain responsible for protein tetramerization (aa 578–611). […]\nThe putative protein–protein interactions between bait (AChE) and the four preys (A4, BACE1A, MAO B, and MAPT) were analyzed by the small-scale mating procedure (5mL) based on the Matchmaker Gold yeast two-hybrid system manual recommendations. […]\nThe yeast β-galactosidase assay kit (ThermoFisher Scientific, USA) was applied to quantitatively analyze the strength of the hybrid-ligand induced interactions.\nTo evaluate the β-galactosidase activity in the yeast culture, the yeast β-galactosidase microplate assay protocol (stopped) was used according to the manufacturer’s instructions. […] The optical densities at 660 nm and absorbance at 420 nm were evaluated by (Synergy H1, Biotek). In the quantitative β-galactosidase assay, the hybrid ligand 3c was used. […]"}, "[2]": {"test_system": "histone H3 phosphorylation (Ser10) in human astrocytes", "experiment": "Global histone H3 phosphorylation (Ser10) colorimetric assay", "assay_type": "cell-based", "conditions": "for amount of phosphorylated H3Ser10 / phosphorylation of H3Ser10 in comparison to 100% control: 24 h", "experimental": "Cell culture: Human astrocytes (HA, Sciencell, USA) were grown in the Astrocyte Cell Medium (Sciencell) supplemented with 2% fetal bovine serum (Sciencell), 1% Astrocyte Cell Growth Supplement (Sciencell), and 1% penicillin/streptomycin solution (Sciencell). Cells were cultured in the incubator at 37 °C and 5% CO2. To start the experiment, cells were seeded at the density of 1.5 × 10^6 cells/well in the flasks and were kept in the incubator (37 °C, 5% CO2) for 24 h. After the incubation period, the medium was removed. Then, the cells were exposed to compound 3c (1 µM and 0.025 µM) or nothing but control medium for 24 h. Then, cells were collected and histone extracts from them were prepared.\nThe levels of histone H3 phosphorylation (Ser10) were determined using a Global Histone H3 phosphorylation (Ser10) colorimetric assay kit (Epigentek) according to the manufacturer’s instructions. In the assay, the phosphorylated histone H3 at ser10 is captured in the wells of a 96-well plate coated with an anti-phospho histone H3 antibody. The captured phosphorylated histone H3 (Ser10) is detected with a labeled detection antibody followed by a color development reagent. […]"}, "SH-SY5Y cells": {"test_system": "SH-SY5Y cells", "experiment": "Neuroprotection against rotenone/oligomycin A, pre-incubation (MTT)", "assay_type": "cell-based, human", "conditions": "R/O mixture, 0.0001 µM"}, "EeAChE": {"biological_target": "EeAChE (Electrophorus electricus, UniProt O42275)", "sequence (O42275 24-633)": "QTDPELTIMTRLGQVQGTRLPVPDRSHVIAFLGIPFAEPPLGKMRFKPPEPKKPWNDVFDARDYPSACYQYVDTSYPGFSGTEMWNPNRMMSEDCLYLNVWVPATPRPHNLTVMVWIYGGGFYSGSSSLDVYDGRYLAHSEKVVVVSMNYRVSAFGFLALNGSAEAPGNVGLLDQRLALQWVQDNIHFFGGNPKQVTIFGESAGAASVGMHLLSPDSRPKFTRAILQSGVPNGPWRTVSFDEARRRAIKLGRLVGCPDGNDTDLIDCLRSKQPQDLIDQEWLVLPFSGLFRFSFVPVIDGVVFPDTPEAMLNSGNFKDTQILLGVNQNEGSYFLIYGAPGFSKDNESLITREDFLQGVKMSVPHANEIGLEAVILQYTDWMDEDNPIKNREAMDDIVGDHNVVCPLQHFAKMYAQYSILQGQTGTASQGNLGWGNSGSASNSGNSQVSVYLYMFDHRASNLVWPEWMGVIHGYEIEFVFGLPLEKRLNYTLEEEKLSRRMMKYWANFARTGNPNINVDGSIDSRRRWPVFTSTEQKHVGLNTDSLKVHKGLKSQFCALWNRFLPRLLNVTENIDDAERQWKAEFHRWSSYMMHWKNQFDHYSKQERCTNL", "experiment": "Kinetic characterization of EeAChE inhibition (Lineweaver–Burk plot)", "assay_type": "biochemical", "conditions": "inhibitor 25, 75, 100 nM", "experimental": "Compound 3e was selected and kinetic studies were performed similar to the enzyme inhibition assay. […]. 0.05–0.5 mM). All processes were assayed in triplicate."}, "AChE from electric eel": {"biological_target": "AChE from electric eel (Electrophorus electricus, UniProt O42275)", "sequence (O42275 24-633)": "as above", "experiment": "biochemical"}}, "data": [{"compound": "O=C(NCCCCNc1c2c(nc3ccccc13)CCCC2)c1cc(Cl)cc(Cl)c1", "note": "[Compound 3c]", "values": [{"measurement": "hybrid ligand-mediated interaction AChE–BACE-1A (colonies on DDO/X/A plates)", "setting": "[1]; 10 µM hybrid ligand", "result": "interaction between AChE and BACE-1 is mediated by hybrid ligand 3c"}, {"measurement": "activity of β-galactosidase", "setting": "[1]; AChE–BACE-1A, 10 μM ligand, yeast grown 96 h", "result": "88.69 ± 2.57", "unit": "units"}, {"measurement": "amount of phosphorylated H3Ser10", "setting": "[2]; 0.025 µM", "result": 28.26, "unit": "µg/mg"}, {"measurement": "phosphorylation of H3Ser10 in comparison to 100% control", "setting": "[2]; 0.025 µM", "result": 105.64, "unit": "%"}, {"measurement": "DNA damage", "setting": "[2]; 1 µM and 0.025 µM", "result": "not observed"}, {"measurement": "amount of phosphorylated H3Ser10", "setting": "[2]; 1 µM", "result": 29.08, "unit": "µg/mg"}, {"measurement": "phosphorylation of H3Ser10 in comparison to 100% control", "setting": "[2]; 1 µM", "result": 108.69, "unit": "%"}, {"measurement": "neuroprotection", "setting": "SH-SY5Y cells", "result": 2.84, "unit": "%"}, {"measurement": "inhibition type of EeAChE", "setting": "EeAChE", "result": "mixed-type inhibition"}, {"measurement": "Selectivity for AChE", "setting": "AChE from electric eel; IC50 (BuChE)/IC50(AChE)", "result": 4.864}, {"measurement": "IC50", "setting": "AChE from electric eel; means ± SD of three independent experiments, read-out: EeAChE IC50 ± SD", "result": "25 ± 3", "unit": "nM"}]}]}
